Source: patent US10722575B2, “Use of 1,3-diphenylprop-2-en-1-one derivatives for treating liver disorders” (GENFIT, priority 2009, dated 2020)

What was measured:
[1] = test system: patients suffering from impaired fasting glucose, impaired glucose tolerance and abdominal obesity; test: Second pilot double-blind placebo-controlled randomized study, Cpd 29 80 mg/day, 28 days; assay type: in vivo, human; conditions: 80 mg/day oral
Experimental: 1-[4-methylthiophenyl]-3-[3,5-dimethyl-4-carboxydimethylmethyloxyphenyl]prop-2-en-1-one (Cpd 29 of WO 2004/005233) has been formulated as hard shell capsules containing 5, 10 or 20 mg of the compound. The compound (80 mg) was administered orally once daily for 28 days. The study has been performed in two parallel groups in double-blind conditions: placebo or Cpd 29 of WO 2004/005233.
The tolerability and safety of once-a-day administrations, as well as the efficacy in improving plasma lipids and glucose homeostasis compared with placebo, were evaluated in two pilot trials using relevant biochemical parameters. The data were used to calculate the percentage of change due to the compound when compared to the placebo after 28 days of treatment.
A second pilot, double-blind, placebo controlled, randomized study has been performed in patients suffering from impaired fasting glucose, impaired glucose tolerance and abdominal obesity for assessing the tolerability and safety of once-a-day administrations of oral doses of Cpd 29 of WO 2004/005233 (at the dose of 80 mg/day), as well as the efficacy on glucose and lipid metabolism.

[2] = test system: hApoE2 KI/PPARalpha KO mice; test: hApoE2 KI/PPARalpha KO mice on Western diet, 2 weeks, histological scores of liver steatosis and intralobular inflammation; assay type: in vivo; conditions: 30 mg/kg/day
Experimental: (§1) Animals were fed a Western diet (20% saturated fat and 0.2% cholesterol, Harlan Teklad TD88137) during 2 weeks in the first study, that involved the daily administration of Cpd 29 (at 30 mg/kg/day by oral gavage), and during 6 weeks in the second study, that involved the daily administration of Compound 1 of WO 2007147879 (Cpd1, at 30 mg/kg/day by oral gavage). Control animals were treated with vehicle only (Carboxymethlycellulose 1%+Tween-80 0.1%). Animals had access to food and water ad libitum.
(§2) At the end of the studies, the animals were weighed and sacrificed under anesthesia. Blood was collected from the retro-orbital sinus; plasma was obtained by centrifugation (4 000 rpm, at 4° C. for 15 min) and subsequently frozen and stored at −20° C. Tissues and livers were isolated and snap-frozen in liquid nitrogen and stored at −80° C. for subsequent analysis (gene expression and biochemistry) or fixed in 4% paraformaldehyde for histology.
Formalin-fixed liver tissue was processed, and 5-μm-thick paraffin sections were stained with Hematoxylin and Eosin. The histological analysis of stained liver sections was carried out in blind conditions to quantify liver steatosis and liver intralobular inflammation. Liver steatosis was scored from 0 to 3 as follows: 0 (very slightly affected), 1 (slightly affected), 2 (moderately affected), 3 (highly affected). Liver intralobular inflammation was also scored depending on the number of inflammatory foci counted by field of observation as follows: 0 (<1 focus/field), 1 (1 to 2 foci/field), 2 (2 to 4 foci/field) 3 (more than 4 foci/field).
Exemplary compounds of the General Formula (I) were tested in vivo in a high fat diet mice model. hApoE2 KI and hApoE2 KI/PPARalpha KO (“humanized” ApoE2 knock-in mice deficient for the mPPARalpha gene) were fed a Western diet and daily treated with the Cpd 29 at 30 mg/kg/day during 2 weeks. At the end of the protocol, liver steatosis and intra-lobular inflammation were evaluated in the control and treated mice by means of histological analysis and specific scores.

[3] = test system: hApoE2 KI/PPARalpha KO mice; test: hApoE2 KI/PPARalpha KO mice on Western diet, hepatic gene expression by quantitative RT-PCR; assay type: in vivo; conditions: 30 mg/kg/day by gavage, 6 weeks
Experimental: The compounds of the General Formula (I) were tested in vivo in a high fat diet mice model. Dyslipidemic “humanized” hApoE2 KI deficient for PPARalpha were fed a Western diet and treated during 6 weeks. The compounds of interest, including the Compound 29 of WO 2004/005233 at 30 mg/kg/day and the Compound 1 of WO 2007/147879 at 30 mg/kg/day were orally administrated by gavage. At the end of the protocol, animals were sacrificed, livers were harvested and the hepatic expression of relevant genes implicated in the liver inflammation and the fibrosis processes were evaluated by quantitative RT-PCR. In parallel, liver triglycerides contents were evaluated (Panels A-D). Statistical analysis was performed as indicated for FIG. 1.
as §1, §2
Total RNA was isolated from frozen livers using the NucleoSpin® 96 RNA kit (Macherey Nagel), according to the manufacturer's instructions. Reverse transcription was performed on 1 μg of total RNA by action of 1 μl of MMLV-RT enzyme (Invitrogen) during 1 hour at 37° C. in a total volume of 30 μl. The reaction conditions were 1× buffer (Invitrogen), 1.5 mM DTT (Invitrogen), 0.18 mM dNTPs (Promega), 200 ng pdN6 (Amersham), 30U RNase inhibitor (Promega). Quantitative PCR was then carried out using the MyiQ Single-Color Real-Time PCR Detection System (Biorad). Briefly PCR reactions were performed in 96 well plates on 5 μl of diluted reverse transcription mix using the iQ SYBR Green Supermix kit. The reaction conditions were: 25 μl of volume reaction, 3 mM of MgCl2, and 0.5 μl of each reverse and forward primer solutions (10 pMol), Tm of 60° C.
The quantity of fluorescence emitted is directly proportional to the quantity of complementary DNA present at the start of the reaction and amplified during the PCR. The relative levels of expression were determined using the standard curve for each transcript. The results were then normalized in regard to the signals obtained with the 36B4 control (a reference transcript for hepatic gene expression). The induction factor, i.e. the ratio between the relative signal induced by the compound according to the invention and the average of the values relating to the control group, was then calculated for each sample. The higher this factor, the more the compound promotes target gene expression. The final result is depicted as the average of the induction values in each experimental group.
In another study, the liver-specific anti-inflammatory and anti-fibrotic properties effects of Cpd 29 and Compound 1 of WO 2007/147879 (Cpd 1) were evaluated in the hApoE2 KI/PPARalpha KO mice that were fed a Western diet and daily treated with the selected compounds during 6 weeks.

[4] = hApoE2 KI/PPARalpha KO mice, Western diet

## 1-[4-methylthiophenyl]-3-[3,5-dimethyl-4-carboxydimethylmethyloxyphenyl]prop-2-en-1-one [Cpd 29]
[1]
  LDL-C: reduced
[1]; p<0.001
  plasma triglycerides, change relative to placebo: −25%
[1]; p<0.01
  HDL-C, change relative to placebo: +9%
  fasting insulinemia, change relative to placebo: −25%
  insulin resistance index, HOMA-IR, change relative to placebo: −31%
  liver acute phase inflammation marker haptoglobin: reduction
  reduction of Gamma Glutamyl transpeptidase level: 15%
[1]; p<0.05
  fasting plasma glucose, change relative to placebo: −5%
[2]; [4]
  development of liver inflammation induced by the diet: inhibits
  development of liver steatosis induced by the diet: inhibits
[2]; share of group with score 0 (<1 focus/field), hApoE2 KI/PPARalpha KO
  Liver Inflammation (score) 0: 67%
[2]; share of group with score 0 (very slightly affected), hApoE2 KI/PPARalpha KO
  Liver Steatosis (score) 0: 0%
[2]; share of group with score 1 (1 to 2 foci/field), hApoE2 KI/PPARalpha KO
  Liver Inflammation (score) 1: 17%
[2]; share of group with score 1 (slightly affected), hApoE2 KI/PPARalpha KO
  Liver Steatosis (score) 1: 33%
[2]; share of group with score 2 (2 to 4 foci/field), hApoE2 KI/PPARalpha KO
  Liver Inflammation (score) 2: 17%
[2]; share of group with score 2 (moderately affected), hApoE2 KI/PPARalpha KO
  Liver Steatosis (score) 2: 50%
[2]; share of group with score 3 (highly affected), hApoE2 KI/PPARalpha KO
  Liver Steatosis (score) 3: 17%
[2]; share of group with score 3 (more than 4 foci/field), hApoE2 KI/PPARalpha KO
  Liver Inflammation (score) 3: 0%
[3]; FIG. 4A
  liver expression of TNFα: inhibited
[3]; FIG. 4B
  liver expression of TGFβ: inhibited
[3]; FIG. 4C
  liver expression of collagen: inhibited
